biological target: CDK2 (UniProt P24941); assay: Enzyme Assay; settings: not given

Row | Ki | SMILES
1 | 20 nM | Cn1cccc1CNC(=O)c1ccc(Nc2nc(N)c(C(=O)c3c(F)cccc3F)s2)cc1
2 | 25 nM | N#CCc1ccc(CNC(=O)c2ccc(Nc3nc(N)c(C(=O)c4c(F)cccc4F)s3)cc2)cc1
3 | 111 nM | C[C@H](CN(C)C)N(C)C(=O)c1ccc(Nc2nc(N)c(C(=O)c3c(F)cccc3F)s2)cc1

same assay, conditions: concentration not given here

Row | inhibition | SMILES
4 | -7% | CCCCN(CCO)C(=O)c1ccc(Nc2nc(N)c(C(=O)c3c(F)cccc3F)s2)cc1
5 | -6% | Nc1nc(Nc2ccc(C(=O)NCCc3cccc(F)c3)cc2)sc1C(=O)c1c(F)cccc1F
6 | -19% | CCOc1ccccc1CCNC(=O)c1ccc(Nc2nc(N)c(C(=O)c3c(F)cccc3F)s2)cc1
7 | -15% | C=CCN(C(=O)c1ccc(Nc2nc(N)c(C(=O)c3c(F)cccc3F)s2)cc1)C1CCCCC1
8 | -16% | COCCN(C)C(=O)c1ccc(Nc2nc(N)c(C(=O)c3c(F)cccc3F)s2)cc1
9 | 0% | N#CCCN(Cc1ccccc1)C(=O)c1ccc(Nc2nc(N)c(C(=O)c3c(F)cccc3F)s2)cc1
10 | -23% | Nc1nc(Nc2ccc(C(=O)NCCCN3CCCC3=O)cc2)sc1C(=O)c1c(F)cccc1F
11 | -7% | COC(CN(C)C(=O)c1ccc(Nc2nc(N)c(C(=O)c3c(F)cccc3F)s2)cc1)OC
12 | -30% | CCCCC(CC)NC(=O)c1ccc(Nc2nc(N)c(C(=O)c3c(F)cccc3F)s2)cc1 (stereo unspecified)
13 | -31% | Nc1nc(Nc2ccc(C(=O)Nc3cccc(OC(F)(F)F)c3)cc2)sc1C(=O)c1c(F)cccc1F
14 | -5% | COc1ccc(OC)c(CCNC(=O)c2ccc(Nc3nc(N)c(C(=O)c4c(F)cccc4F)s3)cc2)c1
15 | -27% | CCN(CC)CCCN(C)C(=O)c1ccc(Nc2nc(N)c(C(=O)c3c(F)cccc3F)s2)cc1
16 | -2% | Nc1nc(Nc2ccc(C(=O)NCCCO)cc2)sc1C(=O)c1c(F)cccc1F
17 | -11% | CCC(C)CN(CCO)C(=O)c1ccc(Nc2nc(N)c(C(=O)c3c(F)cccc3F)s2)cc1 (stereo unspecified)
18 | -1% | Nc1nc(Nc2ccc(C(=O)N3CCN(c4ccncc4)CC3)cc2)sc1C(=O)c1c(F)cccc1F
19 | -23% | CN(C)C(=O)CN(C)C(=O)c1ccc(Nc2nc(N)c(C(=O)c3c(F)cccc3F)s2)cc1
20 | 1% | CN(Cc1ccncc1)C(=O)c1ccc(Nc2nc(N)c(C(=O)c3c(F)cccc3F)s2)cc1
21 | -33% | CC1CC(C)CN(C(=O)c2ccc(Nc3nc(N)c(C(=O)c4c(F)cccc4F)s3)cc2)C1 (stereo unspecified)
22 | -6% | Nc1nc(Nc2ccc(C(=O)Nc3ccc(Nc4ccccc4)cc3)cc2)sc1C(=O)c1c(F)cccc1F
23 | -11% | Nc1nc(Nc2ccc(C(=O)NCCc3ccncc3)cc2)sc1C(=O)c1c(F)cccc1F
24 | 0% | Nc1nc(Nc2ccc(C(=O)N(CCCCO)Cc3ccccc3)cc2)sc1C(=O)c1c(F)cccc1F
25 | -16% | CC(C)C[C@@H](CO)NC(=O)c1ccc(Nc2nc(N)c(C(=O)c3c(F)cccc3F)s2)cc1

Row | inhibition | SMILES
26 | -4% | COCCN(CCOC)C(=O)c1ccc(Nc2nc(N)c(C(=O)c3c(F)cccc3F)s2)cc1
27 | -23% | CC(C)(C)C1CCC(NC(=O)c2ccc(Nc3nc(N)c(C(=O)c4c(F)cccc4F)s3)cc2)CC1 (stereo unspecified)
28 | -3% | Cc1cc(C)cc(NC(=O)c2ccc(Nc3nc(N)c(C(=O)c4c(F)cccc4F)s3)cc2)c1
29 | -4% | Nc1nc(Nc2ccc(C(=O)N3CCOCC3)cc2)sc1C(=O)c1c(F)cccc1F
30 | 19% | Nc1nc(Nc2ccc(CCO)cc2)sc1C(=O)c1c(F)cccc1F
31 | -5% | N#CCCN(CC1CCCO1)C(=O)c1ccc(Nc2nc(N)c(C(=O)c3c(F)cccc3F)s2)cc1 (stereo unspecified)
32 | -16% | CCCN(C(=O)c1ccc(Nc2nc(N)c(C(=O)c3c(F)cccc3F)s2)cc1)C(C)CC (stereo unspecified)
33 | -14% | Nc1nc(Nc2ccc(C(=O)N3CCN(CCCO)CC3)cc2)sc1C(=O)c1c(F)cccc1F
34 | -12% | CCCN(CCc1ccccn1)C(=O)c1ccc(Nc2nc(N)c(C(=O)c3c(F)cccc3F)s2)cc1
35 | -6% | Nc1nc(Nc2ccc(C(=O)Nc3cccc(F)c3)cc2)sc1C(=O)c1c(F)cccc1F
36 | -2% | Nc1nc(Nc2ccc(C(=O)NCC(O)CO)cc2)sc1C(=O)c1c(F)cccc1F (stereo unspecified)
37 | -6% | CC(CCc1ccccc1)NC(=O)c1ccc(Nc2nc(N)c(C(=O)c3c(F)cccc3F)s2)cc1 (stereo unspecified)
38 | -2% | CN(C(=O)c1ccc(Nc2nc(N)c(C(=O)c3c(F)cccc3F)s2)cc1)C1CCCCC1
39 | -12% | CCCCN(CCCCO)C(=O)c1ccc(Nc2nc(N)c(C(=O)c3c(F)cccc3F)s2)cc1
40 | -4% | CCOCCNC(=O)c1ccc(Nc2nc(N)c(C(=O)c3c(F)cccc3F)s2)cc1
41 | 0% | CC(C)CCCC(C)NC(=O)c1ccc(Nc2nc(N)c(C(=O)c3c(F)cccc3F)s2)cc1 (stereo unspecified)
42 | -21% | Nc1nc(Nc2ccc(C(=O)NCCc3c(Cl)cccc3Cl)cc2)sc1C(=O)c1c(F)cccc1F
43 | -14% | CN(C)CCCN1CCN(C(=O)c2ccc(Nc3nc(N)c(C(=O)c4c(F)cccc4F)s3)cc2)CC1
44 | -3% | Nc1nc(Nc2ccc(C(=O)N3CCSC3)cc2)sc1C(=O)c1c(F)cccc1F
45 | -20% | CC(C)C(C)NC(=O)c1ccc(Nc2nc(N)c(C(=O)c3c(F)cccc3F)s2)cc1 (stereo unspecified)
46 | -12% | Nc1nc(Nc2ccc(C(=O)NCCCCO)cc2)sc1C(=O)c1c(F)cccc1F
47 | -5% | CC(=O)c1ccc(NC(=O)c2ccc(Nc3nc(N)c(C(=O)c4c(F)cccc4F)s3)cc2)cc1

Row | inhibition | SMILES
48 | -11% | CC1CC(NC(=O)c2ccc(Nc3nc(N)c(C(=O)c4c(F)cccc4F)s3)cc2)CC(C)(C)C1 (stereo unspecified)
49 | -11% | Nc1nc(Nc2ccc(C(=O)Nc3ccc(Cl)cc3CO)cc2)sc1C(=O)c1c(F)cccc1F
50 | 15% | COc1ccc(C(=O)NC(=O)c2ccc(Nc3nc(N)c(C(=O)c4c(F)cccc4F)s3)cc2)cc1N
51 | -1% | NC(=O)c1cccc(NC(=O)c2ccc(Nc3nc(N)c(C(=O)c4c(F)cccc4F)s3)cc2)c1
52 | -40% | Cc1nccc(-c2cccc(NC(=O)c3ccc(Nc4nc(N)c(C(=O)c5c(F)cccc5F)s4)cc3)c2)n1
53 | -10% | Nc1nc(Nc2ccc(C(=O)Nc3ccc(Cl)cc3)cc2)sc1C(=O)c1c(F)cccc1F
54 | -12% | CCCN(CCC#N)C(=O)c1ccc(Nc2nc(N)c(C(=O)c3c(F)cccc3F)s2)cc1
55 | 0% | Nc1nc(Nc2ccc(C(=O)NCCc3ccc(Cl)cc3)cc2)sc1C(=O)c1c(F)cccc1F
56 | -16% | CCN(CCO)C(=O)c1ccc(Nc2nc(N)c(C(=O)c3c(F)cccc3F)s2)cc1
57 | -20% | C=CCN(CC=C)C(=O)c1ccc(Nc2nc(N)c(C(=O)c3c(F)cccc3F)s2)cc1
58 | -10% | CC1CN(C(=O)c2ccc(Nc3nc(N)c(C(=O)c4c(F)cccc4F)s3)cc2)CC(C)O1 (stereo unspecified)
59 | -6% | CCSCCNC(=O)c1ccc(Nc2nc(N)c(C(=O)c3c(F)cccc3F)s2)cc1
60 | -5% | Nc1nc(Nc2ccc(C(=O)NC3CC3)cc2)sc1C(=O)c1c(F)cccc1F
61 | -14% | Nc1nc(Nc2ccc(C(=O)N[C@H](CO)Cc3ccccc3)cc2)sc1C(=O)c1c(F)cccc1F
62 | -4% | COC(=O)c1ccccc1NC(=O)c1ccc(Nc2nc(N)c(C(=O)c3c(F)cccc3F)s2)cc1
63 | 1% | C#CCc1ccc(NC(=O)c2ccc(Nc3nc(N)c(C(=O)c4c(F)cccc4F)s3)cc2)cc1
64 | -24% | Nc1nc(Nc2ccc(C(=O)N3CCCCC3CCO)cc2)sc1C(=O)c1c(F)cccc1F (stereo unspecified)
65 | -10% | Nc1nc(Nc2ccc(C(=O)NCCC3OCCO3)cc2)sc1C(=O)c1c(F)cccc1F
66 | -4% | CC(C)N(Cc1ccccc1)c1ccc(NC(=O)c2ccc(Nc3nc(N)c(C(=O)c4c(F)cccc4F)s3)cc2)cc1
67 | -1% | CCCCN(CC#N)C(=O)c1ccc(Nc2nc(N)c(C(=O)c3c(F)cccc3F)s2)cc1
68 | -17% | CCCCN(Cc1ccccc1)C(=O)c1ccc(Nc2nc(N)c(C(=O)c3c(F)cccc3F)s2)cc1
69 | -1% | CN(Cc1ccccc1)C(=O)c1ccc(Nc2nc(N)c(C(=O)c3c(F)cccc3F)s2)cc1

Row | inhibition | SMILES
70 | -1% | Cc1cc(NC(=O)c2ccc(Nc3nc(N)c(C(=O)c4c(F)cccc4F)s3)cc2)ccc1F
71 | -7% | CC[C@H](C)[C@@H](CO)NC(=O)c1ccc(Nc2nc(N)c(C(=O)c3c(F)cccc3F)s2)cc1
72 | -10% | CC(C)NC(=O)c1ccc(Nc2nc(N)c(C(=O)c3c(F)cccc3F)s2)cc1
73 | -3% | CCCN(CC1CC1)C(=O)c1ccc(Nc2nc(N)c(C(=O)c3c(F)cccc3F)s2)cc1
74 | -16% | CN(C)CCCCCCNC(=O)c1ccc(Nc2nc(N)c(C(=O)c3c(F)cccc3F)s2)cc1
75 | 23% | Nc1nc(Nc2ccc(O)cc2)sc1C(=O)c1c(F)cccc1F
76 | -9% | Nc1nc(Nc2ccc(C(=O)Nc3ccc(Cl)nc3)cc2)sc1C(=O)c1c(F)cccc1F
77 | 1% | CCOC(=O)c1ccc(NC(=O)c2ccc(Nc3nc(N)c(C(=O)c4c(F)cccc4F)s3)cc2)cc1
78 | -7% | CC(CNC(=O)c1ccc(Nc2nc(N)c(C(=O)c3c(F)cccc3F)s2)cc1)N(C)C (stereo unspecified)
79 | -12% | Cc1cccc(Cl)c1NC(=O)c1ccc(Nc2nc(N)c(C(=O)c3c(F)cccc3F)s2)cc1
80 | -7% | Nc1nc(Nc2ccc(C(=O)N[C@H](CO)CC3CCCCC3)cc2)sc1C(=O)c1c(F)cccc1F
81 | -21% | CC(=O)N(C)C1CCN(C(=O)c2ccc(Nc3nc(N)c(C(=O)c4c(F)cccc4F)s3)cc2)C1 (stereo unspecified)
82 | -14% | C#CCN(C)C(=O)c1ccc(Nc2nc(N)c(C(=O)c3c(F)cccc3F)s2)cc1
83 | -1% | Nc1nc(Nc2ccc(C(=O)Nc3ccon3)cc2)sc1C(=O)c1c(F)cccc1F
84 | -10% | CCN(C(=O)c1ccc(Nc2nc(N)c(C(=O)c3c(F)cccc3F)s2)cc1)C1CCCCC1
85 | -12% | CN(CCc1ccccc1)C(=O)c1ccc(Nc2nc(N)c(C(=O)c3c(F)cccc3F)s2)cc1
86 | -5% | Nc1nc(Nc2ccc(C(=O)NCCCCCCO)cc2)sc1C(=O)c1c(F)cccc1F
87 | -9% | CCN(CC)CCN(C)C(=O)c1ccc(Nc2nc(N)c(C(=O)c3c(F)cccc3F)s2)cc1
88 | -8% | Nc1nc(Nc2ccc(C(=O)Nc3cccc(Br)c3)cc2)sc1C(=O)c1c(F)cccc1F
89 | -3% | CC(C)C(CO)NC(=O)c1ccc(Nc2nc(N)c(C(=O)c3c(F)cccc3F)s2)cc1 (stereo unspecified)
90 | -30% | Cc1ccc(NC(=O)c2ccc(Nc3nc(N)c(C(=O)c4c(F)cccc4F)s3)cc2)c(F)c1
91 | -24% | COCCCNC(=O)c1ccc(Nc2nc(N)c(C(=O)c3c(F)cccc3F)s2)cc1

— the Kinase Knowledgebase extract (Sharma et al. 2016)
